Where a name gives a salt, the structure may show the parent alone. Some results are limits rather than exact numbers.

human GlyT1c transporter, sequence (P48067 whole entry): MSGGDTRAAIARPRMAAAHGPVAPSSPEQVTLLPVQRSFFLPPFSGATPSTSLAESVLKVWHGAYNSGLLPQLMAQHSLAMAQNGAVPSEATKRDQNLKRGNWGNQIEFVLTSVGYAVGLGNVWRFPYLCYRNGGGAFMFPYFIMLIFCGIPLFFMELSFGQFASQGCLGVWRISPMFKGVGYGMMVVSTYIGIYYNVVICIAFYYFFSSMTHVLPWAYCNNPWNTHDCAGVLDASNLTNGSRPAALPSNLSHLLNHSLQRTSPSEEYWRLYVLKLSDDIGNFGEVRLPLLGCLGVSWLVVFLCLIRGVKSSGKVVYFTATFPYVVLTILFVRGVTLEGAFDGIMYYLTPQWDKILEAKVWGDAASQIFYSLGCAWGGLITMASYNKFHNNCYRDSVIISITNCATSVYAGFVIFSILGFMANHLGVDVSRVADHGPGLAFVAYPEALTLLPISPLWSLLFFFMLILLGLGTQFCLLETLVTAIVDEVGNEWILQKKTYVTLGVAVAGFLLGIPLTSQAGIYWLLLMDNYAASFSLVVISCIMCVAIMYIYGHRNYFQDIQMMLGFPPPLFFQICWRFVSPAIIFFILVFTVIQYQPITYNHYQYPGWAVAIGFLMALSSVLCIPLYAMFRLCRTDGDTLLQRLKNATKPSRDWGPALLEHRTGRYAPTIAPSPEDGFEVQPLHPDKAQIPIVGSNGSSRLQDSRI

For the assay, the target named is human GlyT1c transporter (Homo sapiens (Human), UniProt P48067). Briefly: Radioligand binding assays using recombinant CHO cell membranes expressing human GlyT1. The settings on record: read-out: radioligand binding Kiapp. As for the experimental part:
Radioligand binding to human GlyT1c transporter-expressing membranes was determined as described in Mezler et al., Molecular Pharmacology 74:1705-1715, 2008.
Consider `Cn1cc(S(=O)(=O)NCc2cccc(C(Cc3ccccc3)CN3CCC3)c2)cn1` (stereo not shown) [Example 37, 1-Methyl-1H-pyrazole-4-sulfonic acid 3-(2-azetidin-1-yl-1-benzyl-ethyl)benzylamide, hydrochloride], for which the Ki is at most 1 µM.

As for `CN(Cc1cccc(C(CNC(=O)OC(C)(C)C)C2(c3ccc(Cl)cc3)CCC2)c1)S(=O)(=O)c1cnn(C)c1` (stereo not shown) [Example 39, tert-Butyl {2-[1-(4-chlorophenyl)cyclobutyl]-2-[3-({methyl[(1-methyl-1H-pyrazol-4-yl)sulfonyl]amino}methyl)phenyl]ethyl}carbamate], the Ki is at most 10 µM.

With `CCCS(=O)(=O)N(C)Cc1cccc(C(CNC(=O)OC(C)(C)C)C2(c3ccc(Cl)cc3)CCC2)c1` (stereo not shown) [Example 40, tert-Butyl {2-[1-(4-chlorophenyl)cyclobutyl]-2-(3-{[methyl(propylsulfonyl)amino]methyl}phenyl)ethyl}carbamate], the Ki was at most 10 µM.

Turning to `CN(Cc1cccc(C(CNC(=O)OC(C)(C)C)C2(c3ccc(Cl)cc3)CCC2)c1)S(=O)(=O)c1cn(C)cn1` (stereo not shown) [Example 41, tert-Butyl {2-[1-(4-chlorophenyl)cyclobutyl]-2-[3-({methyl[(1-methyl-1H-imidazol-4-yl)sulfonyl]amino}methyl)phenyl]ethyl}carbamate], the Ki is at most 10 µM.

As for `CCCS(=O)(=O)N(C)Cc1cccc(C(CN)C2(c3ccc(Cl)cc3)CCC2)c1` (stereo not shown) [Example 42, N-(3-{2-Amino-1-[1-(4-chlorophenyl)cyclobutyl]ethyl}benzyl)-N-methylpropane-1-sulfonamide hydrochloride], the Ki is at most 10 µM.

Consider `CN(Cc1cccc(C(CN)C2(c3ccc(Cl)cc3)CCC2)c1)S(=O)(=O)CCCF` (stereo not shown) [Example 43, N-(3-{2-Amino-1-[1-(4-chlorophenyl)cyclobutyl]ethyl}benzyl)-3-fluoro-N-methylpropane-1-sulfonamide hydrochloride], for which the Ki was at most 10 µM.

Turning to `CN(Cc1cccc(C(CN)C2(c3ccc(Cl)cc3)CCC2)c1)S(=O)(=O)c1cn(C)cn1` (stereo not shown) [Example 44, N-(3-{2-Amino-1-[1-(4-chlorophenyl)cyclobutyl]ethyl}benzyl)-N,1-dimethyl-1H-imidazole-4-sulfonamide hydrochloride], the Ki was at most 10 µM.

In the case of `CN(Cc1cccc(C(CN)C2(c3ccc(Cl)cc3)CCC2)c1)S(=O)(=O)c1cnn(C)c1` (stereo not shown) [Example 45, N-(3-{2-Amino-1-[1-(4-chlorophenyl)cyclobutyl]ethyl}benzyl)-N,1-dimethyl-1H-pyrazole-4-sulfonamide hydrochloride], the Ki is at most 10 µM.

As to `CCOC(=O)N1CC(Cc2ccccc2)(c2cccc(OCCNS(=O)(=O)c3cnn(C)c3)c2)C1` [Example 46, 3-Benzyl-3-{3-[2-(1-methyl-1H-pyrazole-4-sulfonylamino)-ethoxy]-phenyl}-azetidine-1-carboxylic acid ethyl ester], the Ki was at most 10 µM.

For `CCOC(=O)N1CC(Cc2ccccc2)(c2cccc(OCCNS(=O)(=O)c3cn(C)cn3)c2)C1` [Example 47, 3-Benzyl-3-{3-[2-(1-methyl-1H-imidazole-4-sulfonylamino)-ethoxy]-phenyl}-azetidine-1-carboxylic acid ethyl ester], the Ki is at most 1 µM.

In the case of `CCOC(=O)N1CC(Cc2ccccc2)(c2cccc(OCCNS(=O)(=O)CC3CC3)c2)C1` [Example 48, 3-Benzyl-3-[3-(2-cyclopropylmethanesulfonylamino-ethoxy)-phenyl]-azetidine-1-carboxylic acid ethyl ester], the Ki was at most 1 µM.

`O=S(=O)(CC1CC1)NCCOc1cccc(C2(Cc3ccccc3)CNC2)c1` [Example 49, N-{2-[3-(3-Benzyl-azetidin-3-yl)-phenoxy]-ethyl}-C-cyclopropyl-methane sulfonamide]: the Ki was at most 1 µM.

As for `Cn1cc(S(=O)(=O)NCCOc2cccc(C3(Cc4ccccc4)CNC3)c2)cn1` [Example 50, 1-Methyl-1H-pyrazole-4-sulfonic acid {2-[3-(3-benzyl-azetidin-3-yl)-phenoxy]-ethyl}-amide], the Ki is at most 0.1 µM.
